{"source": "ChEMBL document CHEMBL5113538", "about": "“Discovery of Novel Allosteric EGFR L858R Inhibitors for the Treatment of Non-Small-Cell Lung Cancer as a Single Agent or in Combination with Osimertinib” (J Med Chem, 2022)", "note": "pIC50: −log10 of the molar value."}
{"test_system": "BaF3", "test": "(§1) Cytotoxicity against mouse BaF3 cells expressing EGFR L858R/T790M/C797S mutant assessed as reduction in cell viability measured after 72 hrs by cell titre glo luminescence assay", "format": "functional, cell-based", "conditions": "BaF3, 72 h"}
{"smiles": "O=C(Nc1nccs1)C(c1ncn2c1C[C@@H](F)C2)n1cc2c(Cl)cc(-c3ccc(N4CCN(C5CC5)CC4)cc3)c(Cl)c2n1", "note": "(mixture of isomers)", "pIC50": 7.64}
{"smiles": "CCN1CCN(c2ccc(-c3cc(Cl)c4cn(C(C(=O)Nc5nccs5)c5ncn6c5C[C@@H](F)C6)nc4c3Cl)cc2)CC1", "note": "(mixture of isomers)", "pIC50": 8.10}
{"smiles": "O=C(Nc1nccs1)C(c1ncn2c1CCC2)N1Cc2c(F)cc(C#Cc3ccc(CN4CCCCC4)cc3)cc2C1=O", "note": "(stereo not given)", "pIC50": 8.00}
{"smiles": "O=C(Nc1nccs1)C(c1ncn2c1CCC2)n1cc2c(F)cc(C#Cc3ccc(CN4CCC(O)CC4)cc3)cc2n1", "note": "(stereo not given)", "pIC50": 8.05}
{"smiles": "O=C(Nc1nccs1)C(c1cc(F)ccc1O)N1Cc2ccc(-c3ccc(N4CCNCC4)cc3)cc2C1=O", "note": "(stereo not given)", "pIC50": 7.52}
{"smiles": "O=C(Nc1nccs1)C(c1ncn2c1CCC2)N1Cc2c(F)cc(C#Cc3cccnc3)cc2C1=O", "note": "(stereo not given)", "pIC50": 7.92}
{"smiles": "O=C(Nc1nccs1)C(c1ncn2c1CCC2)N1Cc2ccc(C#Cc3ccc(CN4CCC(O)CC4)cc3)cc2C1=O", "note": "(stereo not given)", "pIC50": 8.00}
{"test_system": "BaF3", "test": "as §1", "format": "functional, cell-based", "conditions": "BaF3, time 72 hrs", "units": {"IC90": "nM"}}
{"smiles": "O=C(Nc1nccs1)C(c1ncn2c1C[C@@H](F)C2)n1cc2c(Cl)cc(-c3ccc(N4CCN(C5CC5)CC4)cc3)c(Cl)c2n1", "note": "(mixture of isomers)", "IC90": 55}
{"smiles": "CCN1CCN(c2ccc(-c3cc(Cl)c4cn(C(C(=O)Nc5nccs5)c5ncn6c5C[C@@H](F)C6)nc4c3Cl)cc2)CC1", "note": "(mixture of isomers)", "IC90": 19}
{"smiles": "O=C(Nc1nccs1)C(c1ncn2c1CCC2)N1Cc2c(F)cc(C#Cc3ccc(CN4CCCCC4)cc3)cc2C1=O", "note": "(stereo not given)", "IC90": 24}
{"smiles": "O=C(Nc1nccs1)C(c1cc(F)ccc1O)N1Cc2ccc(-c3ccc(N4CCNCC4)cc3)cc2C1=O", "note": "(stereo not given)", "IC90": 40}
{"smiles": "O=C(Nc1nccs1)C(c1ncn2c1CCC2)N1Cc2c(F)cc(C#Cc3cccnc3)cc2C1=O", "note": "(stereo not given)", "IC90": 30}
{"smiles": "O=C(Nc1nccs1)C(c1ncn2c1CCC2)N1Cc2ccc(C#Cc3ccc(CN4CCC(O)CC4)cc3)cc2C1=O", "note": "(stereo not given)", "IC90": 24}
{"test_system": "BaF3", "test": "(§2) Cytotoxicity against mouse BaF3 cells harboring EGFR L858R/C797S mutant assessed as reduction in cell viability measured after 72 hrs by cell titre glo luminescence assay", "format": "functional, cell-based", "conditions": "BaF3, 72 h"}
{"smiles": "Cc1c(-c2ccc(N3CCOCC3)cc2)cc(C(F)F)c2cn(C(C(=O)Nc3nccs3)c3ncn4c3C[C@@H](F)C4)nc12", "note": "(mixture of isomers)", "pIC50": 8.40}
{"smiles": "O=C(Nc1nccs1)C(c1ncn2c1C[C@@H](F)C2)n1cc2c(Cl)cc(-c3ccc(N4CCN(C5CC5)CC4)cc3)c(Cl)c2n1", "note": "(mixture of isomers)", "pIC50": 7.44}
{"smiles": "O=C(Nc1nccs1)C(c1ncn2c1CCC2)N1Cc2ccc(C#Cc3ccccc3)cc2C1=O", "note": "(stereo not given)", "pIC50": "< 5.00"}
{"smiles": "CCN1CCN(c2ccc(-c3cc(Cl)c4cn(C(C(=O)Nc5nccs5)c5ncn6c5C[C@@H](F)C6)nc4c3Cl)cc2)CC1", "note": "(mixture of isomers)", "pIC50": 7.82}
{"smiles": "Cc1c(-c2ccc(N3CCOCC3)cc2)cc(C(F)F)c2cn(C(C(=O)Nc3nccs3)c3ncn4c3CCC43CC3)nc12", "note": "(stereo not given)", "pIC50": 8.52}
{"smiles": "O=C(Nc1nccs1)C(c1ncn2c1CCC2)N1Cc2c(F)cc(C#Cc3ccc(CN4CCCCC4)cc3)cc2C1=O", "note": "(stereo not given)", "pIC50": 6.68}
{"smiles": "O=C(Nc1nccs1)C(c1ncn2c1CCC2)n1cc2c(F)cc(C#Cc3ccc(CN4CCC(O)CC4)cc3)cc2n1", "note": "(stereo not given)", "pIC50": 6.10}
{"smiles": "O=C(Nc1nccs1)C(c1ncn2c1C[C@@H](F)C2)n1cc2c(Cl)cc(-c3ccc(N4CCOCC4)cc3)c(Cl)c2n1", "note": "(mixture of isomers)", "pIC50": 7.92}
{"smiles": "O=C(Nc1nccs1)C(c1cc(F)ccc1O)N1Cc2ccc(-c3ccc(N4CCNCC4)cc3)cc2C1=O", "note": "(stereo not given)", "pIC50": 5.81}
{"smiles": "O=C(Nc1nccs1)C(c1ncn2c1CCC2)N1Cc2c(F)cc(C#Cc3cccnc3)cc2C1=O", "note": "(stereo not given)", "pIC50": 5.74}
{"smiles": "O=C(Nc1nccs1)C(c1ncn2c1CCC2)N1Cc2ccc(C#Cc3ccc(CN4CCC(O)CC4)cc3)cc2C1=O", "note": "(stereo not given)", "pIC50": 5.90}
{"test_system": "BaF3", "test": "as §2", "format": "functional, cell-based", "conditions": "BaF3, time 72 hrs", "units": {"IC90": "µM"}}
{"smiles": "O=C(Nc1nccs1)C(c1ncn2c1C[C@@H](F)C2)n1cc2c(Cl)cc(-c3ccc(N4CCN(C5CC5)CC4)cc3)c(Cl)c2n1", "note": "(mixture of isomers)", "IC90": 0.104}
{"smiles": "O=C(Nc1nccs1)C(c1ncn2c1CCC2)N1Cc2ccc(C#Cc3ccccc3)cc2C1=O", "note": "(stereo not given)", "IC90": "> 10"}
{"smiles": "CCN1CCN(c2ccc(-c3cc(Cl)c4cn(C(C(=O)Nc5nccs5)c5ncn6c5C[C@@H](F)C6)nc4c3Cl)cc2)CC1", "note": "(mixture of isomers)", "IC90": 0.042}
{"smiles": "O=C(Nc1nccs1)C(c1ncn2c1CCC2)N1Cc2c(F)cc(C#Cc3ccc(CN4CCCCC4)cc3)cc2C1=O", "note": "(stereo not given)", "IC90": 0.711}
{"smiles": "O=C(Nc1nccs1)C(c1cc(F)ccc1O)N1Cc2ccc(-c3ccc(N4CCNCC4)cc3)cc2C1=O", "note": "(stereo not given)", "IC90": 7.28}
{"smiles": "O=C(Nc1nccs1)C(c1ncn2c1CCC2)N1Cc2c(F)cc(C#Cc3cccnc3)cc2C1=O", "note": "(stereo not given)", "IC90": 7}
{"smiles": "O=C(Nc1nccs1)C(c1ncn2c1CCC2)N1Cc2ccc(C#Cc3ccc(CN4CCC(O)CC4)cc3)cc2C1=O", "note": "(stereo not given)", "IC90": 3.25}
{"test_system": "BaF3", "test": "Antitumor activity against mouse BaF3 cells harboring EGFR L858R/C797S mutant allografted in Balb/c nude mouse assessed as in tumor growth inhibition at 30 mg/kg administered twice daily measured on day 20", "format": "functional", "conditions": "BaF3, 480 h, time 20 day, read-out: TGI", "units": {"inhibition in vivo at 30 mg/kg": "%"}}
{"smiles": "Cc1c(-c2ccc(N3CCOCC3)cc2)cc(C(F)F)c2cn(C(C(=O)Nc3nccs3)c3ncn4c3CCC43CC3)nc12", "note": "(stereo not given)", "inhibition in vivo at 30 mg/kg": 26}
{"biological_target": "Epidermal growth factor receptor (Homo sapiens, UniProt P00533, C797S/L858R/T790M)", "sequence (P00533 25-1210 T790M/C797S/L858R limits assumed)": "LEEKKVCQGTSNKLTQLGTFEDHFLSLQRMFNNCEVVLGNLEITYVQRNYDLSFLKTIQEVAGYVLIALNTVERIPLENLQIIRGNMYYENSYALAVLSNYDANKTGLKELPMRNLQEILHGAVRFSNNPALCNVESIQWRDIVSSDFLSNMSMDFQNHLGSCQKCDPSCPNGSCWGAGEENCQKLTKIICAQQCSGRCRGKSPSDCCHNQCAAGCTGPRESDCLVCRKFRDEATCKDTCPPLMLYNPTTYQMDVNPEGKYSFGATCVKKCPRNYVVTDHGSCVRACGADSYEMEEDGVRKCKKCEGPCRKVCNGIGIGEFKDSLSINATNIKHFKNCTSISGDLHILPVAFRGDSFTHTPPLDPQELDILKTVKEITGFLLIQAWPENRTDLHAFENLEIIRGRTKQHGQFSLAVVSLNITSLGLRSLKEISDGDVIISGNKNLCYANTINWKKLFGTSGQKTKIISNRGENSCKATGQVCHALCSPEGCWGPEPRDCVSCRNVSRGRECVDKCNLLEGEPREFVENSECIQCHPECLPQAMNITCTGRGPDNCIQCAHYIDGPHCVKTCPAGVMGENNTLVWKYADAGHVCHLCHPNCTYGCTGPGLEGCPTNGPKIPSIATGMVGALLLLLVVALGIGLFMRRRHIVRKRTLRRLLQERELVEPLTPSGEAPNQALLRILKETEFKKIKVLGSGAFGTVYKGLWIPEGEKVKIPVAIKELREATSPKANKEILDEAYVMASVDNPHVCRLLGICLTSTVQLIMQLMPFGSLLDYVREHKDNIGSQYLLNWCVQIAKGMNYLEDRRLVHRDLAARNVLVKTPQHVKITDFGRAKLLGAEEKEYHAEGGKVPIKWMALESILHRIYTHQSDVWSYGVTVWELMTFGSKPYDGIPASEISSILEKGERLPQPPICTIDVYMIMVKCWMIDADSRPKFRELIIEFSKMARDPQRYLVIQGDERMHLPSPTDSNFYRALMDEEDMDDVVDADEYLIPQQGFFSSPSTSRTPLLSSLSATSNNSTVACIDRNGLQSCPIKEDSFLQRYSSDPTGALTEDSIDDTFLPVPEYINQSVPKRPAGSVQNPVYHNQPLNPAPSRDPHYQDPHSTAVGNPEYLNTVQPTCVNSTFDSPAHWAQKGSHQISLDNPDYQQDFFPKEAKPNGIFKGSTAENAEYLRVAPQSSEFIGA", "conditions": "not given"}
{"smiles": "Cc1c(-c2ccc(N3CCOCC3)cc2)cc(C(F)F)c2cn(C(C(=O)Nc3nccs3)c3ncn4c3C[C@@H](F)C4)nc12", "note": "(mixture of isomers)", "pIC50": 8.15}
{"smiles": "Cc1[nH]nc(C(C(=O)Nc2nccs2)N2Cc3ccccc3C2=O)c1C", "note": "(stereo not given)", "pIC50": "< 5.00"}
{"smiles": "O=C(Nc1nccs1)C(c1n[nH]c2c1CCC2)N1Cc2ccccc2C1=O", "note": "(stereo not given)", "pIC50": 7.64}
{"smiles": "O=C(Nc1nccs1)C(c1ncn2c1C[C@@H](F)C2)n1cc2c(Cl)cc(-c3ccc(N4CCN(C5CC5)CC4)cc3)c(Cl)c2n1", "note": "(mixture of isomers)", "pIC50": 7.77}
{"smiles": "O=C(Nc1nccs1)C(c1cc[nH]n1)N1Cc2ccccc2C1=O", "note": "(stereo not given)", "pIC50": 6.03}
{"smiles": "Cc1c(-c2ccc(N3CCOCC3)cc2)cc(C(F)F)c2cn(C(C(=O)Nc3nccs3)c3ncn4c3CCC43CC3)nc12", "note": "(stereo not given)", "pIC50": 8.00}
{"smiles": "O=C(Nc1nccs1)C(c1ncn2c1CCC2)N1Cc2c(F)cc(C#Cc3ccc(CN4CCCCC4)cc3)cc2C1=O", "note": "(stereo not given)", "pIC50": 8.15}
{"smiles": "O=C(Nc1nccs1)C(c1ncn2c1CCC2)n1cc2c(F)cc(C#Cc3ccc(CN4CCC(O)CC4)cc3)cc2n1", "note": "(stereo not given)", "pIC50": 8.22}
{"smiles": "O=C(Nc1nccs1)C(c1ncn2c1C[C@@H](F)C2)n1cc2c(Cl)cc(-c3ccc(N4CCOCC4)cc3)c(Cl)c2n1", "note": "(mixture of isomers)", "pIC50": 8.22}
{"smiles": "O=C(Nc1nccs1)C(c1ncn2c1CCC2)N1Cc2ccccc2C1=O", "note": "(stereo not given)", "pIC50": 7.80}
{"smiles": "O=C(Nc1nccs1)C(c1ncn2c1CCC2)N1Cc2c(F)cc(C#Cc3cccnc3)cc2C1=O", "note": "(stereo not given)", "pIC50": 8.15}
{"smiles": "O=C(Nc1nccs1)C(c1ncn2c1CCC2)N1Cc2ccc(C#Cc3ccc(CN4CCC(O)CC4)cc3)cc2C1=O", "note": "(stereo not given)", "pIC50": 8.15}
{"biological_target": "Epidermal growth factor receptor (Homo sapiens, UniProt P00533, C797S/L858R)", "sequence (P00533 25-1210 C797S/L858R limits assumed)": "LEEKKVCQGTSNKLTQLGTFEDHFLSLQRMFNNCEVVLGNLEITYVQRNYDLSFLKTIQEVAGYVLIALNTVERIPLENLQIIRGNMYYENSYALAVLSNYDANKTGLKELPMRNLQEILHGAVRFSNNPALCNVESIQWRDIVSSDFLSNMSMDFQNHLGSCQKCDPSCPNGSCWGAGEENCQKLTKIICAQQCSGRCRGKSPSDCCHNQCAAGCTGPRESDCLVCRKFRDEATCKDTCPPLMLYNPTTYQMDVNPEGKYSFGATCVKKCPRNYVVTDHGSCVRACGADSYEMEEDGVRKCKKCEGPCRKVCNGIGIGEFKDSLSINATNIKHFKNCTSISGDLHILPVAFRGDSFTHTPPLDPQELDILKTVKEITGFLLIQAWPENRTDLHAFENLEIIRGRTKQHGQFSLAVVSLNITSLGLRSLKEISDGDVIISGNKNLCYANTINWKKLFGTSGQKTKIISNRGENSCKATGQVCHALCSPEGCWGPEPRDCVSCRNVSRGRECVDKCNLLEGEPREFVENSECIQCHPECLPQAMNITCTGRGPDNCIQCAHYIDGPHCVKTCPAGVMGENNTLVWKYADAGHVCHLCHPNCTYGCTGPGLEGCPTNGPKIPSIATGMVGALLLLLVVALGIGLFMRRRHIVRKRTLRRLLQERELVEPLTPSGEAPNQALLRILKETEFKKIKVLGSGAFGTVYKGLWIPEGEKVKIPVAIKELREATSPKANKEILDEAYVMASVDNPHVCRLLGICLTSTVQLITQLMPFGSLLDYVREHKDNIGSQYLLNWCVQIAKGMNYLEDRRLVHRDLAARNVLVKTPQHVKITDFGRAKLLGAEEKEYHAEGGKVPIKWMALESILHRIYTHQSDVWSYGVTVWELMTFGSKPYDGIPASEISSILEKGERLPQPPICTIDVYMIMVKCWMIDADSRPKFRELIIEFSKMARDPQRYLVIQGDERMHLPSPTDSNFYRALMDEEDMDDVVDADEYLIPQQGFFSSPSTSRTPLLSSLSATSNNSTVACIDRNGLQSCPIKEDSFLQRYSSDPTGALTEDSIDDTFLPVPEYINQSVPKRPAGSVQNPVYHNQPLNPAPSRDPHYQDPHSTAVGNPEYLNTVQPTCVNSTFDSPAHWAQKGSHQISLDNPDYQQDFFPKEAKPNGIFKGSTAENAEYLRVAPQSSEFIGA", "conditions": "not given"}
{"smiles": "Cc1[nH]nc(C(C(=O)Nc2nccs2)N2Cc3ccccc3C2=O)c1C", "note": "(stereo not given)", "pIC50": "< 5.00"}
{"smiles": "O=C(Nc1nccs1)C(c1n[nH]c2c1CCC2)N1Cc2ccccc2C1=O", "note": "(stereo not given)", "pIC50": 5.49}
{"smiles": "O=C(Nc1nccs1)C(c1ncn2c1C[C@@H](F)C2)n1cc2c(Cl)cc(-c3ccc(N4CCN(C5CC5)CC4)cc3)c(Cl)c2n1", "note": "(mixture of isomers)", "pIC50": 7.52}
{"smiles": "O=C(Nc1nccs1)C(c1cc[nH]n1)N1Cc2ccccc2C1=O", "note": "(stereo not given)", "pIC50": "< 5.00"}
{"smiles": "CCN1CCN(c2ccc(-c3cc(Cl)c4cn(C(C(=O)Nc5nccs5)c5ncn6c5C[C@@H](F)C6)nc4c3Cl)cc2)CC1", "note": "(mixture of isomers)", "pIC50": 7.82}
{"smiles": "O=C(Nc1nccs1)C(c1ncn2c1CCC2)N1Cc2c(F)cc(C#Cc3ccc(CN4CCCCC4)cc3)cc2C1=O", "note": "(stereo not given)", "pIC50": 7.27}
{"smiles": "O=C(Nc1nccs1)C(c1ncn2c1CCC2)n1cc2c(F)cc(C#Cc3ccc(CN4CCC(O)CC4)cc3)cc2n1", "note": "(stereo not given)", "pIC50": 6.97}
{"smiles": "O=C(Nc1nccs1)C(c1ncn2c1C[C@@H](F)C2)n1cc2c(Cl)cc(-c3ccc(N4CCOCC4)cc3)c(Cl)c2n1", "note": "(mixture of isomers)", "pIC50": 7.77}
{"smiles": "O=C(Nc1nccs1)C(c1ncn2c1CCC2)N1Cc2ccccc2C1=O", "note": "(stereo not given)", "pIC50": 5.77}
{"smiles": "O=C(Nc1nccs1)C(c1ncn2c1CCC2)N1Cc2c(F)cc(C#Cc3cccnc3)cc2C1=O", "note": "(stereo not given)", "pIC50": 6.89}
{"smiles": "O=C(Nc1nccs1)C(c1ncn2c1CCC2)N1Cc2ccc(C#Cc3ccc(CN4CCC(O)CC4)cc3)cc2C1=O", "note": "(stereo not given)", "pIC50": 6.53}
